The structures appear in SMILES notation.

Assay [1] can be described thus: Antiinflammatory activity in rat polymorphonuclear leucocyte cells assessed as inhibition of PAF-induced beta-glucuronidase release at 10 uM preincubated for 20 mins followed by PAF addition relative to control. The format is functional.
Assay [2] concerns RAW264.7. Kind of assay: Inhibition of NO production in LPS-stimulated mouse RAW264.7 cells preincubated with compound for 30 mins followed by LPS stimulation and measured after 24 hrs by Griess reagent-based assay. The format is functional, cell-based.
Assay [3] has as its target T1, Acid-sensing ion channel 1 (Rattus norvegicus) (UniProt P55926).
T1 sequence (whole entry): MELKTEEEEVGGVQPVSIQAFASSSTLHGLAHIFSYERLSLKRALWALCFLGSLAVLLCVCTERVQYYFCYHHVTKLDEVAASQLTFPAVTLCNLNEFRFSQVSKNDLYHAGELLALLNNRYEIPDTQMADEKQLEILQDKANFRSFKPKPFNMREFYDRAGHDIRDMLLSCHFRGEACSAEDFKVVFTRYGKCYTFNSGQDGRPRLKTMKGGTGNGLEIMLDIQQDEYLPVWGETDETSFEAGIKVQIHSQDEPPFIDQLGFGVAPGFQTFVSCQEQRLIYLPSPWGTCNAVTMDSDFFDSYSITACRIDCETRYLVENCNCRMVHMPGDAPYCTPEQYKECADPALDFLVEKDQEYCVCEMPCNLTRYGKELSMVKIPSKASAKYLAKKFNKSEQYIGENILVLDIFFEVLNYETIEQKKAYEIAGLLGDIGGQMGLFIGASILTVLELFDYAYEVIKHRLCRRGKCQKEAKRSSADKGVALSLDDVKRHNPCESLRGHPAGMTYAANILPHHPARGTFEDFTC
In words: Inhibition of rat ASIC1a ion channel expressed in Xenopus laevis oocytes in pH 6.5 buffer at -50 mV holding potential by voltage clamp electrophysiology recording. The format is cell-based.

Assay [4] concerns the target T1, Acid-sensing ion channel 1 (Rattus norvegicus). Kind of assay: Inhibition of rat ASIC1a ion channel expressed in Xenopus laevis oocytes in pH 6.9 buffer at -50 mV holding potential by voltage clamp electrophysiology recording. The format is cell-based.
Assay [5] has the same target. In words: Inhibition of rat ASIC1a ion channel expressed in Xenopus laevis oocytes in pH 6.7 buffer at -50 mV holding potential by voltage clamp electrophysiology recording. The format is cell-based.
A short description of assay [6]: Inhibition of NO production in LPS-induced mouse N9 cells incubated for 48 hrs by griess reagent based assay. Conditions: N9, 48 h. The format is functional, cell-based.
Assay [7] has as its system RAW264.7. Kind of assay: Inhibition of NO production in LPS-stimulated mouse RAW264.7 cells preincubated with compound for 1 hrs followed by LPS stimulation and measured after 24 hrs by Griess reagent-based assay. The format is functional, cell-based. A general note: The Griess reaction detects nitrite, a stable product of nitric oxide.
A further assay concerns Rattus norvegicus. In words: Antiinflammatory activity in Wistar rat assessed as inhibition of carrageenan-induced hind paw edema at 50 mg/kg, po pre-treated for 1 hrs followed by carrageenan administration and measured after 3 hrs by plethysmometer relative to control. The format is functional. As to conditions: time 4 hrs. A general note: Carrageenan injected into the paw causes an acute inflammation.

The target of assay [8] is Nuclear factor NF-kappa-B complex (Homo sapiens) (UniProt Q00653+P19838+Q04206). Kind of assay: Inhibition of TNF-alpha induced NFkappaB activation in HEK293 cells at 100 uM pretreated for 15 mins followed by stimulation with human recombinant TNFalpha and measured after 6 hrs by luminescence based assay relative to control. The format is cell-based. Conditions: time 375.0 min.
Chain of Nuclear factor NF-kappa-B complex (Homo sapiens) (P19838 whole entry, looked up): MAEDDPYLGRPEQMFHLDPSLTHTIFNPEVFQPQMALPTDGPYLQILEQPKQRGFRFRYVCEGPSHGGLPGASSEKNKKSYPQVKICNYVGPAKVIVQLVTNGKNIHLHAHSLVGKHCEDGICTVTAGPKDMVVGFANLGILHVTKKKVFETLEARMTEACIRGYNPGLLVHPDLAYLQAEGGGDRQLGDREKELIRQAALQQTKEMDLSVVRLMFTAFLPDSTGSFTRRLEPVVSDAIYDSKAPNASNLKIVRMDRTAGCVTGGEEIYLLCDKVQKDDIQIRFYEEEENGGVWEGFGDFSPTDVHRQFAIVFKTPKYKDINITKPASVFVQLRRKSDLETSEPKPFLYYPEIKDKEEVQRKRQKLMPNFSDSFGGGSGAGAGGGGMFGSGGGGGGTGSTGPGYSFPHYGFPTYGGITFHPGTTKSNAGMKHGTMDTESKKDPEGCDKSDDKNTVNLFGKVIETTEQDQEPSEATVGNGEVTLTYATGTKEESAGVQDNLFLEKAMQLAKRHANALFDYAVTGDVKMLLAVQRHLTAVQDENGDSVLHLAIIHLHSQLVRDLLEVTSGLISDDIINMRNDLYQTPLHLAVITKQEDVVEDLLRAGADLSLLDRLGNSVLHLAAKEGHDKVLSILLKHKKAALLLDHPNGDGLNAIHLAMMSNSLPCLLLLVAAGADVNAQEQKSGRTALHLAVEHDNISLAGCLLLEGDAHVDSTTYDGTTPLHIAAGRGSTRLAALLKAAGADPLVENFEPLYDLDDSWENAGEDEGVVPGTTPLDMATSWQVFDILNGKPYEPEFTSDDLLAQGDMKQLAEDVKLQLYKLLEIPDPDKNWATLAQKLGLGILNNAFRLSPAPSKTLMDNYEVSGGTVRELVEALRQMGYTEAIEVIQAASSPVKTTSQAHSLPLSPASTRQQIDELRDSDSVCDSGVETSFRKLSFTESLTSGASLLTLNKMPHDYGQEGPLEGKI
Chain of Nuclear factor NF-kappa-B complex (Homo sapiens) (Q00653 whole entry, looked up): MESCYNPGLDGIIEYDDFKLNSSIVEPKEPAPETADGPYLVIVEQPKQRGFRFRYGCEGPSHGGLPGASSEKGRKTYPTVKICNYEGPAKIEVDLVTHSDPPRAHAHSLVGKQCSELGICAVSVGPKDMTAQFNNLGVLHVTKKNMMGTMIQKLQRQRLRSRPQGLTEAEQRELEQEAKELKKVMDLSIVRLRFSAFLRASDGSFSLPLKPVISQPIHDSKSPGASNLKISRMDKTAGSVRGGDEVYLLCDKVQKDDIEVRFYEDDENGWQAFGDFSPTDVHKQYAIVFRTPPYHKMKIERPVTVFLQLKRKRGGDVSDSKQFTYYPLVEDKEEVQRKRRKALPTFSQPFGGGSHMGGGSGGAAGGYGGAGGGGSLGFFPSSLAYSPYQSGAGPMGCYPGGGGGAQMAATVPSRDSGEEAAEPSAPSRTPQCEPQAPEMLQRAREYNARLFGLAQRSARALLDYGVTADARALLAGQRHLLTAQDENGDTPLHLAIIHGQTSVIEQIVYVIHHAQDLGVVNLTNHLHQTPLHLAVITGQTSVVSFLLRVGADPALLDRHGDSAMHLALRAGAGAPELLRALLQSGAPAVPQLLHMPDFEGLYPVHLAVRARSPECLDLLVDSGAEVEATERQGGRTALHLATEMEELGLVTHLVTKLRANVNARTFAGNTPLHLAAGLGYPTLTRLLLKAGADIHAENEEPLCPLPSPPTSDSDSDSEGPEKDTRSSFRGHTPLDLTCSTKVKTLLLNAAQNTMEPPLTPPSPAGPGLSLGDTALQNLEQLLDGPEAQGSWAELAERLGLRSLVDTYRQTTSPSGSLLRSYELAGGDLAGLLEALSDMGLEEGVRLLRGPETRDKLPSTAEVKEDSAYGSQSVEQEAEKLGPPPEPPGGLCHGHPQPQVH
Chain of Nuclear factor NF-kappa-B complex (Homo sapiens) (Q04206 whole entry, looked up): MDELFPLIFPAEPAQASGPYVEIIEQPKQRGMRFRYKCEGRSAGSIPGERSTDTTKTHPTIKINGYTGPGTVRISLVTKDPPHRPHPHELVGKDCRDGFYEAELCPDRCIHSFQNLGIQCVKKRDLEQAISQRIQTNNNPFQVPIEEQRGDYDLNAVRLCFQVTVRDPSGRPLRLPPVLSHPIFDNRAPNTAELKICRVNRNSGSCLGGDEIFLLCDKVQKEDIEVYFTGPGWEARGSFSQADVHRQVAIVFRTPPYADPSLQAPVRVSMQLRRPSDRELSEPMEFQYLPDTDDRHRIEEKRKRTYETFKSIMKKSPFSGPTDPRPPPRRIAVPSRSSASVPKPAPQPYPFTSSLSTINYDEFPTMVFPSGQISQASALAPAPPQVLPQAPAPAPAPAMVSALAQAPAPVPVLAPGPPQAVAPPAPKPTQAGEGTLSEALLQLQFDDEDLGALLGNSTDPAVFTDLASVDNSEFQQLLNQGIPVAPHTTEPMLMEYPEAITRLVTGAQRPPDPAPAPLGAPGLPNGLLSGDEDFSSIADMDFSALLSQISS

Assay [9] concerns RAW264.7. In words: Inhibition of NO production in LPS-stimulated mouse RAW264.7 cells at 100 uM incubated for 18 hrs by Griess reagent-based assay. The format is functional.
In a further assay the test system is J774.1. Kind of assay: Inhibition of NO production in LPS-stimulated mouse J774.1 cells. The format is functional, cell-based.
For assay [10], the system named is RAW264.7. Kind of assay: Antiinflammatory activity against mouse RAW264.7 cells assessed as inhibition of cell growth. The format is functional, cell-based.
The target in assay [11] is Prostaglandin G/H synthase 1 (Homo sapiens, UniProt P23219). Kind of assay: Inhibition of COX-1 (unknown origin) by colorimetric analysis.
Chain of Prostaglandin G/H synthase 1 (P23219 whole entry): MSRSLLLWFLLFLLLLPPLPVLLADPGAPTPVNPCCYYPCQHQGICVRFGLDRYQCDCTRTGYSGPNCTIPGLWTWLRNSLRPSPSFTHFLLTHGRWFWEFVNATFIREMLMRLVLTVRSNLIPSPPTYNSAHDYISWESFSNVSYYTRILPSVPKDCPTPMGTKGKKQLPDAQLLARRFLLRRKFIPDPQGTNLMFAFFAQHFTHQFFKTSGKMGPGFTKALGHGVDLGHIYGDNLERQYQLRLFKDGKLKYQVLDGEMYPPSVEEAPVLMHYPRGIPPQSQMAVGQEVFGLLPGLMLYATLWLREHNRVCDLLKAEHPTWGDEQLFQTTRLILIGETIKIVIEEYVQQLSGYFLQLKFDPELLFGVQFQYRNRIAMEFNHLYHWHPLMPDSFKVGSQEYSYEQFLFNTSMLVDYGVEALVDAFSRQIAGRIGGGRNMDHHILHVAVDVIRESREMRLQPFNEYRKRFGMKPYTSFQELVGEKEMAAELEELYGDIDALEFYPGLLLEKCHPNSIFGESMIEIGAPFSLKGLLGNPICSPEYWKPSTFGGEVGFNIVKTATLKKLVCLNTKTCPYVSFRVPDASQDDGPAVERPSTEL
For assay [12], the target named is T2, Prostaglandin G/H synthase 2 (Homo sapiens, UniProt P35354).
T2 sequence (P35354 whole entry): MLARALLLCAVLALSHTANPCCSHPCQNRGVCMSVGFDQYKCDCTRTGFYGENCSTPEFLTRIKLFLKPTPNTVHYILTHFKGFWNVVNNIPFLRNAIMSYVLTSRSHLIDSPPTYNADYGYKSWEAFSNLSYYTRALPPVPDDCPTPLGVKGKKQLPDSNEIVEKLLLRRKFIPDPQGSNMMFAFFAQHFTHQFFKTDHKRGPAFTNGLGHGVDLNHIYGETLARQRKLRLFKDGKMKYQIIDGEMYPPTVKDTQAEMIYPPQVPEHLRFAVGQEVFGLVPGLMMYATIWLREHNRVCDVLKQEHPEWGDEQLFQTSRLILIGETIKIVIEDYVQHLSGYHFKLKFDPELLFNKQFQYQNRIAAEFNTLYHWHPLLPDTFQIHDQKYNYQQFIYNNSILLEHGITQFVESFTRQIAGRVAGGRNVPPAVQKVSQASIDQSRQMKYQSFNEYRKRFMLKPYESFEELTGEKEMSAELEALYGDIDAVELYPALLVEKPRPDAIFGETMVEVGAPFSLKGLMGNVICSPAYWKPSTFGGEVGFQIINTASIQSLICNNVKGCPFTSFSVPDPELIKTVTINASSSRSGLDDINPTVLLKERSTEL
Kind of assay: Inhibition of COX-2 (unknown origin) by colorimetric analysis.

Assay [13] deals with Mus musculus. In words: Antiinflammatory activity in carrageenan-induced peritoneal Swiss albino mouse model assessed as decrease in number of leukocyte cells at 100 umol/kg, po pre-treated for 30 mins followed by carrageenan induction and measured after 4 hrs relative to control. Further details: scale not given: the % may be the effect or the level left. Conditions: dose 100 µmol/kg, time 4.5 hrs. The format is functional.

Assay [14] concerns Mus musculus. In words: Antiinflammatory activity against capsaicin-induced ear edema Swiss albino mouse model assessed as inhibition of plasma extravasation at 100 umol/kg, po pre-treated with compound for 40 mins followed by capsaicin stimulation and measured after 30 mins relative to control. The format is functional.
The subject of assay [15] is Mus musculus. In words: Antiinflammatory activity in mouse assessed as inhibition of xylene-induced ear edema at 10 mg/kg, IG pre-treated for 30 mins followed by xylene administration and measured after 1 hrs relative to control. The format is functional. As to conditions: po, time 1.5 hrs.
Assay [16] deals with T3, Polyunsaturated fatty acid 5-lipoxygenase (Homo sapiens) (UniProt P09917).
T3 sequence (whole entry): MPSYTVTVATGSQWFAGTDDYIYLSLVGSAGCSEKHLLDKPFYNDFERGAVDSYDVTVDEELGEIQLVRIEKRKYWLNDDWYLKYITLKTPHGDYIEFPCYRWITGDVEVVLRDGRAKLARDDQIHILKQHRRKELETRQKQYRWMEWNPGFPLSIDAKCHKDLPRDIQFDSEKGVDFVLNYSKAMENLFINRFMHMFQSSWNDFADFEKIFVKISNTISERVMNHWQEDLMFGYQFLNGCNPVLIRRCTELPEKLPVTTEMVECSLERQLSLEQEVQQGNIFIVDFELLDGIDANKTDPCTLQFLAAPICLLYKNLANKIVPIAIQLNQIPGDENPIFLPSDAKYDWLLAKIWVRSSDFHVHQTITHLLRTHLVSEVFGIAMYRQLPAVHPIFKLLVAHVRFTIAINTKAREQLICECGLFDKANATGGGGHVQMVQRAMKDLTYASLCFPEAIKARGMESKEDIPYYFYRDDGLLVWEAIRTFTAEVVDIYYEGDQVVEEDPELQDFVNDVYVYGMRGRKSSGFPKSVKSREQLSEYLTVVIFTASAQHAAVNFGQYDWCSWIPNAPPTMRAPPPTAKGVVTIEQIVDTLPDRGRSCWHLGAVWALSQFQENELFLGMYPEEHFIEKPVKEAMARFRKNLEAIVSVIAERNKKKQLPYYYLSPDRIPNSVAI
In words: Inhibition of 5-LOX (unknown origin) at 100 uM measured after 5 mins by colorimetric method relative to control.

A short description of assay [17]: Inhibition of IL6 production in LPS-stimulated human PBMC cells. The format is functional, cell-based.
The nature of assay [18]: Inhibition of TNF-alpha production in LPS-stimulated human PBMC cells. The format is functional, cell-based.

Take `COC1O[C@@H]([C@@H]2c3cc4c(cc3CCN2C)OCO4)c2ccc3c(c21)OCO3` (stereo partly specified): in assay [1], the inhibition (usually the share of the control response that was lost under treatment) at 10 µM was determined as 35.6%. On to `O=C(C1C=CC(c2ccc3c(c2)OCO3)C(/C=C/c2ccc3c(c2)OCO3)C1C(=O)N1CCCCC1)N1CCCCC1` (stereo unspecified), for which the half-maximal inhibitory concentration (IC50) (as a rule, the concentration needed to halve the response being measured) with RAW264.7 [2] is 6.8 µM. Consider `COc1cc2c(cc1O)C(Cc1ccc(O)c(Oc3ccc(C[C@@H]4NCCc5cc(OC)c(O)cc54)cc3)c1)NCC2` (stereo partly specified), for which the inhibition in [3] was found to be 69.3%; in [4], 98.1%; in [5] it was 93.7%. With `C=C[C@@H]1[C@@H](O[C@@H]2O[C@H](CO)[C@@H](O)[C@H](O)[C@H]2O)OC=C(C(=O)OC)[C@@H]1C[C@@H]1NCCc2c1[nH]c1ccccc21`, the IC50 in assay [6] worked out at 8.3 µM. Regarding `COC1O[C@H]([C@@H]2c3cc4c(cc3CCN2C)OCO4)c2ccc3c(c21)OCO3` (stereo partly specified), the inhibition at 10 µM in assay [1] is 32.4%. `O=C1NCCc2c1[nH]c1ccc(O)cc21`: the IC50 in the assay on RAW264.7 [7] was determined as 31.9 µM. In the case of `COc1ccc2c(OC)c3ccoc3nc2c1` [EVOLITRINE], in the assay on Rattus norvegicus, the inhibition in vivo – broadly, the relative decrease from the control value, in per cent – at 50 mg/kg was found to be 62%. Regarding `COc1cc2c(cc1O)-c1cc3ccc(OC)c(OC)c3c[n+]1CC2` [COLUMBAMINE], in [8], the inhibition came out at 63.2%. The inhibition at 100 µM with RAW264.7 [9] is 88.1%. `COC(=O)[C@@]1(O)C2=Nc3c(O)cccc3[C@@]23C[C@H]2C[C@]4(C(C)=O)ON2[C@H]3C[C@H]14`: the figures for the IC50 with J774.1 and in the assay with RAW264.7 [10] were 49.2 µM and 39.6 µM, respectively. Consider `CC(C)CC(=O)NC[C@H]1CC[C@H](NC(=O)c2nc3ccccc3cc2O)[C@H](O)O1`, for which the IC50 in assay [11] was 4.9 µM; in assay [12] it was 1.4 µM. `COC(=O)/C1=C/c2c([nH]c3ccccc23)/C(C(=O)OC)=C\c2c1[nH]c1ccccc21` [CAULERPIN]: the Activity in the assay on Mus musculus [13] worked out at 48.3%. Also, in the assay on Mus musculus [14], the inhibition in vivo at 100 µmol/kg came out at 55.8%.

For `C/C=C1/CN2[C@@H]3C[C@@]45c6ccccc6N[C@]4(O3)[C@@H]2C[C@@H]1[C@@H]5OC(C)=O`, in the assay with Mus musculus [15], the inhibition in vivo at 10 mg/kg is 41.9%. The molecule also registered an inhibition in [16] of 79.2%. `COc1ccc2c(c1)[nH]c1c3c(c(C)cc12)OC(C)(C)C=C3`: the figures for the half-inhibitory concentration (IC50) in [17] and in [18] were 8.4 µM and 9.4 µM, respectively.
